Measured values reported in patent US12344600B2, “c-Myc mRNA translation modulators and uses thereof in the treatment of cancer” (Anima Biotech Inc., priority 2022, dated 2025).

Each compound was assayed on c-Myc (assay: c-Myc immunofluorescence assay). Conditions: A549 cells, 24 hours, anti-c-Myc immunofluorescence.
Format: cell-based, human
Method in brief: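 Read-out is imaged c-Myc immunofluorescence, nucleus-segmented, in A549 lung carcinoma cells exposed to compound dose series for 24 h after 48 h growth. Fixation 4% paraformaldehyde, Triton permeabilization, antibody staining at room temperature; EC50 from logistic fit of signal versus concentration.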

Structure (SMILES)	Myc Efficacy (−LogEC50)
C#CCCC1(CCN2CCC(CNC(=O)C3CCN(c4nc(-c5ccc(OC)cc5)no4)CC3)C2)N=N1 (stereo not drawn) [Compound 286, N-((1-(2-(3-(but-3-yn-1-yl)-3H-diazirin-3-yl)ethyl)pyrrolidin-3-yl)methyl)-1-(3-(4-methoxyphenyl)-1,2,4-oxadiazol-5-yl)piperidine-4-carboxamide]	++ (++ ≥5 and <6)
C#CCCC1(CCOc2ccc(-c3noc(N4CCC(C(=O)NCC5CCN(Cc6ccc(C)cc6)C5)CC4)n3)cc2)N=N1 (stereo not drawn) [Compound 287, 1-(3-(4-(2-(3-(but-3-yn-1-yl)-3H-diazirin-3-yl)ethoxy)phenyl)-1,2,4-oxadiazol-5-yl)-N-((1-(4-methylbenzyl)pyrrolidin-3-yl)methyl)piperidine-4-carboxamide]	+++ (+++ ≥6)
C#CCCC1(CCOc2cccc(-c3noc(N4CCC(C(=O)NCC5CCN(Cc6ccc(C)cc6)C5)CC4)n3)c2)N=N1 (stereo not drawn) [Compound 288, 1-(3-(3-(2-(3-(but-3-yn-1-yl)-3H-diazirin-3-yl)ethoxy)phenyl)-1,2,4-oxadiazol-5-yl)-N-((1-(4-methylbenzyl)pyrrolidin-3-yl)methyl)piperidine-4-carboxamide]	++ (++ ≥5 and <6)
COc1ccc(-c2noc(N3CCC(C(=O)NC4CCOC5(CCCCC5)C4)CC3)n2)cc1 (stereo not drawn) [Compound 289, 1-(3-(4-methoxyphenyl)-1,2,4-oxadiazol-5-yl)-N-(1-oxaspiro[5.5]undecan-4-yl)piperidine-4-carboxamide]	+ (+ >3 and <5)
COc1ccc(-c2noc(N3CCC(C(=O)NC4COC5(CCCCC5)C4)CC3)n2)cc1 (stereo not drawn) [Compound 290, 1-(3-(4-methoxyphenyl)-1,2,4-oxadiazol-5-yl)-N-(1-oxaspiro[4.5]decan-3-yl)piperidine-4-carboxamide]	+ (+ >3 and <5)
COc1ccc(-c2noc(N3CCC(C(=O)NC4(C5CC5)CCOCC4)CC3)n2)cc1 [Compound 291, N-(4-cyclopropyltetrahydro-2H-pyran-4-yl)-1-(3-(4-methoxyphenyl)-1,2,4-oxadiazol-5-yl)piperidine-4-carboxamide]	+ (+ >3 and <5)
COc1ccc(-c2noc(N3CCC(C(=O)NC4(C5CCCCC5)CC4)CC3)n2)cc1 [Compound 292, N-(1-cyclohexylcyclopropyl)-1-(3-(4-methoxyphenyl)-1,2,4-oxadiazol-5-yl)piperidine-4-carboxamide]	+ (+ >3 and <5)
COc1ccc(-c2noc(N3CCC(C(=O)NC[C@@H]4CCCC[C@H]4O)CC3)n2)cc1 [Compound 293, N-(((1S,2R)-2-hydroxycyclohexyl)methyl)-1-(3-(4-methoxyphenyl)-1,2,4-oxadiazol-5-yl)piperidine-4-carboxamide]	+ (+ >3 and <5)
COc1ccc(-c2noc(N3CCC(C(=O)NC4CC(O)C4(C)C)CC3)n2)cc1 (stereo not drawn) [Compound 294, N-(3-hydroxy-2,2-dimethylcyclobutyl)-1-(3-(4-methoxyphenyl)-1,2,4-oxadiazol-5-yl)piperidine-4-carboxamide]	+ (+ >3 and <5)
COc1ccc(-c2noc(N3CCC(C(=O)N[C@H]4[C@@H]5CN(C)C[C@@H]54)CC3)n2)cc1 [Compound 295, 1-(3-(4-methoxyphenyl)-1,2,4-oxadiazol-5-yl)-N-((1R,5S,6s)-3-methyl-3-azabicyclo[3.1.0]hexan-6-yl)piperidine-4-carboxamide]	+ (+ >3 and <5)
COc1ccc(-c2noc(N3CCC(C(=O)NCC4(N(C)C)Cc5ccccc5C4)CC3)n2)cc1 [Compound 296, N-((2-(dimethylamino)-2,3-dihydro-1H-inden-2-yl)methyl)-1-(3-(4-methoxyphenyl)-1,2,4-oxadiazol-5-yl)piperidine-4-carboxamide]	+ (+ >3 and <5)
COc1ccc(-c2noc(N3CCC(C(=O)NC(C)C(C)(C)O)CC3)n2)cc1 (stereo not drawn) [Compound 297, N-(3-hydroxy-3-methylbutan-2-yl)-1-(3-(4-methoxyphenyl)-1,2,4-oxadiazol-5-yl)piperidine-4-carboxamide]	+ (+ >3 and <5)
